Patent publication US12581252B2, “Substituted pyrrolo[3,4-b]pyridines as PI3K-α inhibitors” (Relay Therapeutics, Inc., priority 2020, dated 2026)

Target: H1047R PIK3CA enzyme (Homo sapiens, UniProt P42336, H1047R)
Assay: ADP-Glo Biochemical PIK3CA Kinase Assay
Procedure: Compounds to be assayed were plated in 16 doses of 1:2 serial dilutions (20 nL volume each well) on a 1536-well plate, and the plate warmed to room temperature. […] To the well was added 1 μL of 200 μM ATP and 20 μM of diC8-PIP2 in Substrate Assay Buffer (50 mM HEPES pH7.4, 50 mM NaCl, 5 mM DTT and 0.03% CHAPS) to start the reaction, and the plate was shaken for 10 seconds, then spun briefly at 1500 rpm, and then incubated for 60 minutes at room temperature. The reaction was stopped by adding 2 μL of ADP-Glo reagent (Promega), and spinning briefly at 1500 rpm, and then incubating for 40 minutes. ADP-Glo Detection reagent (Promega) was added and the plate spun briefly at 1500 rpm, then incubated for 30 minutes.

Sequence of H1047R PIK3CA enzyme (P42336 whole entry H1047R): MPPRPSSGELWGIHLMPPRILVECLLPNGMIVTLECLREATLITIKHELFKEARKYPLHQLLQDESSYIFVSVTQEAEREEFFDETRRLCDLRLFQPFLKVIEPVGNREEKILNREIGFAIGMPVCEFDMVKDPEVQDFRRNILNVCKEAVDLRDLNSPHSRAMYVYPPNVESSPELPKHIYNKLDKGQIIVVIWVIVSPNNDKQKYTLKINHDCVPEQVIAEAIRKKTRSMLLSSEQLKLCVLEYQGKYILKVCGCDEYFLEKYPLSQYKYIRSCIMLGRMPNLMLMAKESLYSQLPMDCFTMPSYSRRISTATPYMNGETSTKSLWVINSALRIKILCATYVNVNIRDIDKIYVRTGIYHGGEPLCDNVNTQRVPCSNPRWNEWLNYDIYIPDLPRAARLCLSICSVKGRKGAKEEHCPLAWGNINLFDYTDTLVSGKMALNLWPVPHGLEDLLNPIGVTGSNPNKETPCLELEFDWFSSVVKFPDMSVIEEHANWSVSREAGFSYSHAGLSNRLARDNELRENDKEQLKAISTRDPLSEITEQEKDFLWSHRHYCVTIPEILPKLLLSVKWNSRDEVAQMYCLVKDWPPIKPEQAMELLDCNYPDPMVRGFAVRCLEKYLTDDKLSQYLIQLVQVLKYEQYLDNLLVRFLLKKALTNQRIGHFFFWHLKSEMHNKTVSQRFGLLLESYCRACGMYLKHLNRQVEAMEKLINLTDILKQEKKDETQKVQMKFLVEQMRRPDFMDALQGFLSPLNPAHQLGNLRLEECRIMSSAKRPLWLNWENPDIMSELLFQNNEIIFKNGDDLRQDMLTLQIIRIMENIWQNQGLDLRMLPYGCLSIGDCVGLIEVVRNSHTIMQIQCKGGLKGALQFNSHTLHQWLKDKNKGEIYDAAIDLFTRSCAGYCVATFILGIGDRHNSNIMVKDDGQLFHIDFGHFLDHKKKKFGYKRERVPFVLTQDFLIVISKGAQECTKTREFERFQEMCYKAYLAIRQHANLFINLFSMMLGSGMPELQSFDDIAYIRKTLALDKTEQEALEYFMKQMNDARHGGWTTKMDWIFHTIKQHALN
Sequence of H1047R PIK3CA enzyme (P27986 whole entry partner): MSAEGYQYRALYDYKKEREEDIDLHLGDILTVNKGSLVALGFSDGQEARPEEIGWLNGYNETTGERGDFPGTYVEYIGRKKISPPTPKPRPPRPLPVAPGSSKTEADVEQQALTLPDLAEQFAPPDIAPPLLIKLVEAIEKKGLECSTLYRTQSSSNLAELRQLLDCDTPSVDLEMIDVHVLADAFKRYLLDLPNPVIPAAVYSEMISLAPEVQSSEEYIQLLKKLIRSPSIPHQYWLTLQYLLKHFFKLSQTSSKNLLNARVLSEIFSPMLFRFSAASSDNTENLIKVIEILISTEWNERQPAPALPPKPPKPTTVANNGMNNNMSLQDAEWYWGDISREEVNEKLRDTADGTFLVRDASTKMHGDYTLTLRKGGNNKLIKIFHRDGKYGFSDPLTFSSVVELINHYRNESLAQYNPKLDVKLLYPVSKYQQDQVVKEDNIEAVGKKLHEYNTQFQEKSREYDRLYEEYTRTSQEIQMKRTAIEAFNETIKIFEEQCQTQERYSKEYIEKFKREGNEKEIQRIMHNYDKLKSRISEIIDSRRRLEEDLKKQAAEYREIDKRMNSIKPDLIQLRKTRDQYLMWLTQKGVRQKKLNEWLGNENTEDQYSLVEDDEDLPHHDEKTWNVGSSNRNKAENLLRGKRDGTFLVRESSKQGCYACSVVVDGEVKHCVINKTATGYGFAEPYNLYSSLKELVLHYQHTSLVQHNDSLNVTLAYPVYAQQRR

Compound | IC50
O=C1NC(c2cc(F)ccc2F)c2c(NC(=O)c3csc4ccccc34)ccnc21 (stereo not drawn) [Compound I-71] | 0.5 to 1 µM
Cc1cccc(C(=O)Nc2cc(Br)cc3c2C(c2cc(F)ccc2Cl)NC3=O)c1 (stereo not drawn) [Compound I-520] | 1 to 10 µM
CC(C)n1cc(-c2cc(NC(=O)c3cc(F)cc(C(F)(F)F)c3)c3c(c2)C(=O)NC3c2cc(F)ccc2Cl)ccc1=O (stereo not drawn) [Compound I-699] | ≤ 0.1 µM
COc1cc(NC(=O)c2cc(F)cc(C(F)(F)F)c2)c2c(c1)C(=O)NC2c1cc(F)ccc1Cl (stereo not drawn) [Compound I-773] | ≤ 0.1 µM
O=C(Nc1cc(N2CCCC(F)(F)C2)nc2c1C(c1cc(F)ccc1Cl)NC2=O)c1cc(F)cc(C(F)(F)F)c1 (stereo not drawn) [Compound I-538] | ≤ 0.1 µM
O=C(Nc1cccc2c1C(c1cc(F)ccc1Cl)NC2=O)c1cc(F)cnc1NC1CCC1 (stereo not drawn) [Compound I-768] | 1 to 10 µM
CC(C)(O)c1cc(NC(=O)c2cc(F)cc(C(F)(F)F)c2)c2c(n1)C(=O)N[C@@H]2c1cc(F)ccc1Cl [Compound I-271] | 1 to 10 µM
Cc1ccccc1C1NC(=O)c2c(C(O)CO)ccc(NC(=O)c3csc4ccccc34)c21 (stereo not drawn) [Compound I-120] | 0.1 to 0.5 µM
O=C1N[C@H](c2cc(F)ccc2Cl)c2c(NC(=O)N3CC4(CC4)c4cc(F)ccc43)cc(Br)cc21 (stereo in doubt) [Compound I-1510] | 1 to 10 µM
O=C(Nc1cc(Br)cc2c1C(c1cc(F)ccc1Cl)NC2=O)c1cccc(C(F)F)c1 (stereo not drawn) [Compound I-570] | 1 to 10 µM
Cc1ccccc1C1NC(=O)c2c(CN)ccc(NC(=O)c3csc4ccccc34)c21 (stereo not drawn) [Compound I-140] | ≤ 0.1 µM
Cc1cc(F)cc(C(=O)Nc2cc(Br)cc3c2C(c2cc(F)ccc2Cl)NC3=O)c1 (stereo not drawn) [Compound I-951] | 1 to 10 µM
O=C(Nc1cc(-c2ccn3nc(Cl)nc3c2)cc2c1[C@@H](c1cc(F)ccc1Cl)NC2=O)c1cc(F)cc(C(F)(F)F)c1 [Compound I-1606] | 0.1 to 0.5 µM
CS(=O)(=O)C1CN(c2cc(NC(=O)c3cc(F)cc(C(F)(F)F)c3)c3c(n2)C(=O)NC3c2cc(F)ccc2Cl)C1 (stereo not drawn) [Compound I-418] | 0.1 to 0.5 µM
N#Cc1cccc(S(=O)(=O)Cc2cc(NC(=O)c3cc(F)cc(C(F)(F)F)c3)c3c(c2)C(=O)N[C@H]3c2cc(F)ccc2Cl)c1 [Compound I-1594] | ≤ 0.1 µM
O=C(Nc1cc(-c2cn3cccnc3n2)cc2c1C(c1cc(F)ccc1Cl)NC2=O)c1cc(F)cc(C(F)(F)F)c1 (stereo not drawn) [Compound I-1355] | ≤ 0.1 µM
Cc1ccccc1C1NC(=O)c2cc([C@@H](C)NC(=O)OC(C)(C)C)cc(NC(=O)c3csc4ccccc34)c21 (mixture of isomers) [Compound I-89] | 0.1 to 0.5 µM

Compound | IC50
CNC(=O)c1cc(NC(=O)c2cc(F)cc(C(F)(F)F)c2)c2c(c1)C(=O)N[C@@H]2c1ccccc1C [Compound I-211] | 10 to 100 µM
N#CC[C@H](O)c1cc(NC(=O)c2cc(F)cc(C(F)(F)F)c2)c2c(c1)C(=O)N[C@@H]2c1cc(F)ccc1Cl (single isomer, unassigned) [Compound I-1392] | 1 to 10 µM
N#CC[C@H](O)c1cc(NC(=O)c2cc(F)cc(C(F)(F)F)c2)c2c(c1)C(=O)N[C@H]2c1cc(F)ccc1Cl (single isomer, unassigned) [Compound I-1394] | ≤ 0.1 µM
O=C1NC(c2cccc(F)c2F)c2c(NC(=O)c3coc4c(F)cc(F)cc34)ccnc21 (stereo not drawn) [Compound I-210] | 1 to 10 µM
Cc1ccccc1C1NC(=O)c2cccc(-c3nnc(-c4ccccc4)[nH]3)c21 (stereo not drawn) [Compound I-398] | 10 to 100 µM
O=C(Nc1cccc2c1C(c1cc(F)ccc1Cl)NC2=O)c1cc(Br)cc(C(F)(F)F)c1 (stereo not drawn) [Compound I-447] | 1 to 10 µM
Cc1ccccc1C1NC(=O)c2cccc(NC(=O)c3coc4c(F)cc(Cl)cc34)c21 (stereo not drawn) [Compound I-81] | ≤ 0.1 µM
O=C(Nc1cc(Br)cc2c1C(c1cc(F)ccc1Cl)NC2=O)c1cc(Cl)cc(F)c1Cl (stereo not drawn) [Compound I-694] | 1 to 10 µM
Cc1ccccc1C1NC(=O)c2cc(CO)cc(NC(=O)c3cc(F)cc(C(F)(F)F)c3)c21 (stereo not drawn) [Compound I-473] | ≤ 0.1 µM
O=C(Nc1cc(-c2cccnc2)cc2c1C(c1cc(F)ccc1Cl)NC2=O)c1cc(F)cc(C(F)(F)F)c1 (stereo not drawn) [Compound I-888] | ≤ 0.1 µM
O=C(Nc1cc(Br)cc2c1C(c1cc(F)ccc1Cl)NC2=O)c1cc(F)cc(Cl)c1 (stereo not drawn) [Compound I-216] | ≤ 0.1 µM
N#CC1(COc2cc(NC(=O)c3cc(F)cc(C(F)(F)F)c3)c3c(c2)C(=O)NC3c2cc(F)ccc2Cl)CC1 (stereo not drawn) [Compound I-1113] | ≤ 0.1 µM
Cc1ccccc1C1NC(=O)c2cc(CN)cc(NC(=O)c3csc4ccccc34)c21 (stereo not drawn) [Compound I-88, N-(6-(Aminomethyl)-1-oxo-3-(o-tolyl)isoindolin-4-yl)benzo[b]thiophene-3-carboxamide] | ≤ 0.1 µM
O=C(Nc1cc(Br)cc2c1[C@@H](c1cccc(F)c1Cl)NC2=O)c1cc(F)cc(C(F)(F)F)c1 [Compound I-667] | 1 to 10 µM
O=C1NC(c2cc(F)ccc2Cl)c2c(NC(=O)N3CCC(c4ccccc4)C3)cc(Br)cc21 (racemic) [Compound I-598] | 1 to 10 µM
Cc1ccccc1C1NC(=O)c2cccc(NC(=O)N3CCCCC3)c21 (stereo not drawn) [Compound I-433] | 10 to 100 µM

Other lines, results leading:

IC50 | Compound
0.1 to 0.5 µM | CNc1cc(NC(=O)N2C[C@@](O)(C(F)(F)F)c3cc(F)ccc32)c2c(c1)C(=O)N[C@H]2c1cc(F)ccc1Cl (single isomer, unassigned) [Compound I-2642]
≤ 0.1 µM | O=C(Nc1cc(-c2cc(F)c3ncnn3c2)cc2c1C(c1cc(F)ccc1Cl)NC2=O)c1cc(F)cc(C(F)(F)F)c1 (stereo not drawn) [Compound I-1653]
10 to 100 µM | O=C1NC(c2cc(F)ccc2Cl)c2c1cc(-c1ccc3ncnn3c1)cc2C1=CCCNC1 (stereo not drawn) [Compound I-1998]
1 to 10 µM | CNc1cc(NC(=O)N2C[C@](O)(C(F)(F)F)c3cc(F)ccc32)c2c(c1C#N)C(=O)N[C@H]2c1cc(F)ccc1Cl (single isomer, unassigned) [Compound I-2608]
10 to 100 µM | O=C1N[C@H](c2cc(F)ccc2Cl)c2c(NC(=O)N3C[C@@H](CO)[C@H](C(F)(F)F)C3)cccc21 (single isomer, unassigned) [Compound I-2276]
10 to 100 µM | O=C(Nc1cc(Br)cc2c1[C@@H](c1cc(F)ccc1Cl)NC2=O)N[C@]1(CC(F)(F)F)CCCOC1 (racemic) [Compound I-1961]
10 to 100 µM | O=C1N[C@H](c2cc(F)ccc2Cl)c2c(NC(=O)[C@@H]3CCC[C@@H](OC(F)(F)F)C3)cccc21 (single isomer, unassigned) [Compound I-2215]
10 to 100 µM | Cn1nc2ccccc2c1Nc1cc(-c2ccc3ncnn3c2)cc2c1C(c1cc(F)ccc1Cl)NC2=O (stereo not drawn) [Compound I-1841]
1 to 10 µM | O=C1N[C@@H](c2cc(F)ccc2Cl)c2c(NC(=O)N3C[C@@H](O)C[C@@H]3CC(F)(F)F)cccc21 (racemic) [Compound I-2164]
1 to 10 µM | O=C(CC1CC(F)(F)C1(F)F)Nc1cc(Br)cc2c1C(c1cc(F)ccc1Cl)NC2=O (stereo not drawn) [Compound I-1633]
0.5 to 1 µM | O=C(Nc1cc(Cc2ccc3c(c2)CCNC3=O)cc2c1[C@@H](c1cc(F)ccc1Cl)NC2=O)c1cc(F)cc(C(F)(F)F)c1 [Compound I-1625]
10 to 100 µM | O=C1NC(c2cc(F)ccc2Cl)c2c(CO)cc(-c3ccc4ncnn4c3)cc21 (stereo not drawn) [Compound I-1851]
10 to 100 µM | O=C1CCC[C@H]([C@@H]2NC(=O)c3cccc(NC(=O)c4cc(F)cc(C(F)(F)F)c4)c32)C1 (single isomer, unassigned) [Compound I-2254]
10 to 100 µM | C[C@H](c1nn[nH]c1C(=O)Nc1cccc2c1[C@H](c1cc(F)ccc1Cl)NC2=O)C(F)(F)F (single isomer, unassigned) [Compound I-2269]
10 to 100 µM | O=C1N[C@H](c2cc(F)ccc2Cl)c2c(NC(=O)[C@@H]3CC[C@H](C(F)(F)F)C3)cccc21 [Compound I-2084]
10 to 100 µM | CNc1cc(NC(=O)N2C[C@@](O)(C(F)F)c3cc(F)ccc32)c2c(c1)C(=O)N[C@H]2c1cc(F)ccc1Cl (single isomer, unassigned) [Compound I-2680]
1 to 10 µM | O=C1N[C@@H](c2cc(F)ccc2Cl)c2c(NC(=O)N3C[C@](O)(CO)c4ccccc43)cccc21 [Compound I-2166]
1 to 10 µM | O=C1N[C@H](c2cc(F)ccc2Cl)c2c(NC(=O)N3C[C@@H](O)c4cc(F)ccc43)cc(-n3ccccc3=O)cc21 (single isomer, unassigned) [Compound I-2352]
0.1 to 0.5 µM | O=C(Nc1cc(-c2cnn(C(F)F)c2)cc2c1C(c1cc(F)cc(F)c1)NC2=O)c1cc(F)cc(F)c1 (stereo not drawn) [Compound I-2161]
10 to 100 µM | O=C(Nc1cc(Br)cc2c1C(c1cc(F)ccc1Cl)NC2=O)NC1(CC(F)(F)F)CCOCC1 (stereo not drawn) [Compound I-1953]
10 to 100 µM | O=C(Cc1ccccc1)Nc1cc(-c2ccc3ncnn3c2)cc2c1C(c1cc(F)ccc1Cl)NC2=O (stereo not drawn) [Compound I-1665]
1 to 10 µM | O=C1NC(c2cc(F)ccc2Cl)c2c(NC(=O)N3C[C@H](O)[C@@H](C(F)(F)F)C3)cc(-c3ccc4ncnn4c3)cc21 (single isomer, unassigned) [Compound I-1902]
≤ 0.1 µM | O=C(Nc1cc(Cn2cccn2)cc2c1[C@H](c1cc(F)ccc1Cl)NC2=O)c1cc(F)cc(C(F)(F)F)c1 (stereo in doubt) [Compound I-1615]
10 to 100 µM | CC(C)c1cc(N)nn1C(=O)Nc1cccc2c1C(c1cc(F)ccc1Cl)NC2=O (stereo not drawn) [Compound I-2466]
1 to 10 µM | N#CCn1nc(Nc2cc(-c3ccc4ncnn4c3)cc3c2C(c2cc(F)ccc2Cl)NC3=O)c2ccccc21 (stereo not drawn) [Compound I-1808]
10 to 100 µM | O=C1NC(c2cc(F)ccc2Cl)c2c(NC(=O)C34CCC(C(O)C(F)(F)F)(CC3)C4)cccc21 (stereo not drawn) [Compound I-2285]
10 to 100 µM | O=C1NC(c2cc(F)ccc2Cl)c2ccc(-c3ccc4ncnn4c3)cc21 (stereo not drawn) [Compound I-1775]
